The target of data set [1] is NAD-dependent histone deacetylase SIR2 (Saccharomyces cerevisiae S288c) (UniProt P06700). Kind of data set: Inhibition of Sir 2 protein mediated transcriptional silencing at the telomeric locus in yeast at 50 uM after 24 to 48 hrs by URA3 reporter gene assay. A general note: In a reporter assay the amount or activity of a reporter protein is the signal.
The next data set has as its system Saccharomyces cerevisiae. Kind of data set: Cytotoxicity against yeast at 50 uM. It is filed as organism-based. As to conditions: in vivo.
Data set [2] has as its target NAD-dependent histone deacetylase SIR2 (Saccharomyces cerevisiae S288c) (UniProt P06700). Kind of data set: Inhibition of Sir 2 protein mediated transcriptional silencing at the telomeric locus in yeast at 10 uM after 24 to 48 hrs by URA3 reporter gene assay.
Data set [3] has the same target. Kind of data set: Inhibition of Sir 2 protein mediated transcriptional silencing at the telomeric locus in yeast at 30 uM after 24 to 48 hrs by URA3 reporter gene assay.
For data set [4] the target is unchanged. Description: Inhibition of Sir 2 protein mediated transcriptional silencing at the telomeric locus in yeast at 100 uM after 24 to 48 hrs by URA3 reporter gene assay.
Data set [5] shares this target. Kind of data set: Inhibition of Sir 2 protein mediated transcriptional silencing at the telomeric locus in yeast after 24 to 48 hrs by URA3 reporter gene assay.
Data set [6] shares this target. Description: Inhibition of Sir 2 protein mediated transcriptional silencing at the telomeric locus in yeast at 1 uM after 24 to 48 hrs by URA3 reporter gene assay.

Each structure is given as a SMILES string.

One may read the inhibition as the percentage by which the read-out fell short of the control.

Sequence of NAD-dependent histone deacetylase SIR2 (Saccharomyces cerevisiae S288c) (P06700 whole entry): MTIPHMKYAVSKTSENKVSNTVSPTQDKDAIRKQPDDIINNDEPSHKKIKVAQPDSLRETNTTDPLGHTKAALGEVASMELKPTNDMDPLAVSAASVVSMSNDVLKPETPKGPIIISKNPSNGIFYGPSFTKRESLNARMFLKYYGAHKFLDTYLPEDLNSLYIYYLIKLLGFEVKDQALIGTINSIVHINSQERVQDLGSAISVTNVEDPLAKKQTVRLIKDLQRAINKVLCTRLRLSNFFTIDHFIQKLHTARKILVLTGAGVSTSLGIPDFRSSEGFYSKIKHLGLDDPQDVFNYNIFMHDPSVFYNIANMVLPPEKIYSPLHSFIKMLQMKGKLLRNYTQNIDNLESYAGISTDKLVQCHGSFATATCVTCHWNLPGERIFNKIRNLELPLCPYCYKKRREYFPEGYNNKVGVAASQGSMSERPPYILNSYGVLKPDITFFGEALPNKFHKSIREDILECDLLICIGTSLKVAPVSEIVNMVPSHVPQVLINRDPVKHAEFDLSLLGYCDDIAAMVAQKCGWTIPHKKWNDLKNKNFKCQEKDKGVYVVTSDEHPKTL

Regarding `Cc1ccc(S(=O)(=O)n2c(CN3C(=O)C4(NC(=O)c5ccccc5N4)c4ccccc43)cc3cc(C(F)(F)F)ccc32)cc1` (stereo not drawn), the inhibition in data set [1] came out at 38.4%. The Activity result in the data set on Saccharomyces cerevisiae was “Non-toxic”.
In the case of `Cc1ccc(S(=O)(=O)n2c(CN3C(=O)C4(NC(=O)c5ccccc5N4)c4ccccc43)cc3cc(Cl)ccc32)cc1` (stereo not drawn), the inhibition in data set [1] is 40.9%; in data set [2], 30%; in data set [3] it was 37%; in data set [4], 56%; in data set [5] it was “Dose-dependent effect”; in data set [6] it was 18%. Moreover, the Activity result with Saccharomyces cerevisiae was “Non-toxic”.
Turning to `COc1ccc2c(c1)cc(CN1C(=O)C3(NC(=O)c4ccccc4N3)c3ccccc31)n2S(C)(=O)=O` (stereo not drawn), the inhibition in data set [1] is 39%; in data set [2] it was 20%; in data set [3], 29%; in data set [4], 67%; in data set [5], “Dose-dependent effect”; in data set [6] it was 9%. Besides, the Activity entry in the data set on Saccharomyces cerevisiae is reported as “Non-toxic”.
Consider `CS(=O)(=O)n1c(CN2C(=O)C3(NC(=O)c4ccccc4N3)c3ccccc32)cc2cc(Br)ccc21` (stereo not drawn), for which the inhibition in data set [1] is 38.5%. For the same molecule, in the data set with Saccharomyces cerevisiae, the Activity result is “Non-toxic”.
As for `Cc1ccc2c(c1)cc(CN1C(=O)C3(NC(=O)c4ccccc4N3)c3ccccc31)n2S(C)(=O)=O` (stereo not drawn), the inhibition in data set [1] was 40.9%. Besides, the Activity entry with Saccharomyces cerevisiae was “Non-toxic”.
As to `CS(=O)(=O)n1c(CN2C(=O)C3(NC(=O)c4ccccc4N3)c3ccccc32)cc2cc(Cl)ccc21` (stereo not drawn), the inhibition in data set [1] amounted to 30.9%. For the same molecule, in the data set on Saccharomyces cerevisiae, the Activity result is on record as “Non-toxic”.
For `Cc1ccc(S(=O)(=O)n2c(CN3C(=O)C4(NC(=O)c5ccccc5N4)c4ccccc43)cc3cc(Br)ccc32)cc1` (stereo not drawn), in that order: 16.4% and “Non-toxic”.
The corresponding values for `CS(=O)(=O)n1c(CN2C(=O)C3(NC(=O)c4ccccc4N3)c3ccccc32)cc2cc(C(F)(F)F)ccc21` (stereo not drawn) are 39.6% and “Non-toxic”.
As for `COc1ccc2c(c1)cc(CN1C(=O)C3(NC(=O)c4ccccc4N3)c3ccccc31)n2S(=O)(=O)c1ccc(C)cc1` (stereo not drawn), the inhibition in data set [1] is 41%; in data set [2] it was 25%; in data set [3], 32%; in data set [4], 61%; in data set [5] it was “Dose-dependent effect”; in data set [6], 12%. Moreover, the Activity entry in the data set with Saccharomyces cerevisiae is reported as “Non-toxic”.
Regarding `Cc1ccc(S(=O)(=O)n2c(CN3C(=O)C4(NC(=O)c5ccccc5N4)c4ccccc43)cc3ccccc32)cc1` (stereo not drawn), in data set [1], the inhibition amounted to 36.5%. Further, the Activity entry with Saccharomyces cerevisiae is “Non-toxic”.
`CS(=O)(=O)n1c(CN2C(=O)C3(NC(=O)c4ccccc4N3)c3ccccc32)cc2ccccc21` (stereo not drawn) registered an inhibition in data set [1] of 13.9%. Besides, the Activity result in the data set on Saccharomyces cerevisiae was “Non-toxic”.
For `Cc1ccc(S(=O)(=O)n2c(CN3C(=O)C4(NC(=O)c5ccccc5N4)c4ccccc43)cc3cc(C)ccc32)cc1` (stereo not drawn), in that order: 1.2% and “Non-toxic”.
As to `CS(=O)(=O)n1c(CN2C(=O)C3(NC(=O)c4ccccc4N3)c3ccccc32)cc2cc(F)ccc21` (stereo not drawn), the inhibition in data set [1] was determined as 30.3%. Besides, the Activity entry in the data set with Saccharomyces cerevisiae is reported as “Non-toxic”.
In the case of `Cc1ccc(S(=O)(=O)n2c(CN3C(=O)C4(NC(=O)c5ccccc5N4)c4ccccc43)cc3cc(F)ccc32)cc1` (stereo not drawn), in data set [1], the inhibition came to 15.2%. Besides, the Activity result in the data set on Saccharomyces cerevisiae is “Non-toxic”.

Values taken from ChEMBL document CHEMBL2331256, “Spiro heterocycles as potential inhibitors of SIRT1: Pd/C-mediated synthesis of novel N-indolylmethyl spiroindoline-3,2'-quinazolines” (Bioorg Med Chem Lett, 2013).
